Assay results taken from ChEMBL document CHEMBL5674860, “Optimized Dual-Glo Assay to identify co-culture-induced drug vulnerabilities in 3D CRC models” (2024).

How the values were obtained:
Assay type in all cases: functional, Homo sapiens
Set-up in all cases: dose or concentration left out as unconfirmed
Colon cancer organoid [1] = experiment: Optimized Dual-Glo assay to identify co-culture induced drug vulnerabilities using donated chemical probes and chemogenomics kinase set in O14 CRC organoid and F14 CAF mono and co-culture. […] Cell viability is reported both mono and co-culture models.
Colon cancer organoid [2] = experiment: Optimized Dual-Glo assay to identify co-culture induced drug vulnerabilities using donated chemical probes and chemogenomics kinase set in O20 CRC organoid and F20 CAF mono and co-culture. […] Cell viability is reported both mono and co-culture models.
Colon cancer organoid [3] = experiment: Optimized Dual-Glo assay to identify co-culture induced drug vulnerabilities using donated chemical probes and chemogenomics kinase set in O06 CRC organoid and F06 CAF mono and co-culture. […] Cell viability is reported both mono and co-culture models.
[4] = Culture type Co-Culture, Transduced with Lucferase2-P2A-EGFP lentivirus
[5] = Culture type Co-Culture, Transduced with Renilla-dsRed lentivirus
[6] = Culture type Mono-Culture, Transduced with Lucferase2-P2A-EGFP lentivirus
[7] = Culture type Mono-Culture, Transduced with Renilla-dsRed lentivirus

SMILES | Cell Viability (Colon cancer organoid [1]; [4]) | Cell Viability (Colon cancer organoid [1]; [5]) | Cell Viability (Colon cancer organoid [1]; [6]) | Cell Viability (Colon cancer organoid [1]; [7]) | Cell Viability (Colon cancer organoid [2]; [4]) | Cell Viability (Colon cancer organoid [2]; [5]) | Cell Viability (Colon cancer organoid [2]; [6]) | Cell Viability (Colon cancer organoid [2]; [7]) | Cell Viability (Colon cancer organoid [3]; [4]) | Cell Viability (Colon cancer organoid [3]; [5]) | Cell Viability (Colon cancer organoid [3]; [6]) | Cell Viability (Colon cancer organoid [3]; [7])
C[C@@H](c1cccc(CN)c1)n1cc(Cl)cc(C(N)=O)c1=N.Cl | 79.0577% | 134.768% | 97.3624% | 96.7861% | 85.1583% | 93.567% | 85.5992% | 85.7646% | 104.535% | 114.984% | 142.418% | 104.758%
O=C(CCCCCCNC(=O)c1cnc(N(c2ccccc2)c2ccccc2)nc1)NO [RICOLINOSTAT] | 162.049% | 119.991% | 164.32% | 101.457% | 158.742% | 130.22% | 89.6658% | 107.525% | 80.064% | 143.43% | 66.4985% | 158.366%
CCC(=O)N[C@@H]1CC[C@H](C(=O)N(C)c2ccc(-c3nc4ccccc4o3)cc2)C1 [BI 99990] | 87.159% | 112.98% | 99.3505% | 100.76% | 115.817% | 121.154% | 99.9084% | 146.017% | 135.832% | 173.184% | 107.841% | 87.7071%
O=C(Nc1cnc(Oc2ccc(F)cc2)nc1)N1CCc2ncccc2[C@@H]1c1ccc(F)cc1 [BAY-899] | 76.8335% | 114.239% | 91.8718% | 105.629% | 151.718% | 104.61% | 76.6403% | 85.9791% | 92.2798% | 100.101% | 137.923% | 100.535%
N#CN1CC[C@H](C(=O)Nc2nc3c(s2)CN(C(=O)CN=[N+]=[N-])CC3)C1 [8RK64] | 91.8118% | 102.385% | 81.5329% | 88.8457% | 67.2995% | 105.29% | 57.1131% | 75.6901% | 104.648% | 104.354% | 102.804% | 85.3904%
C[C@@H](Oc1cc(-n2cnc3ccc(CN4CCN(C)CC4)cc32)sc1C(N)=O)c1ccccc1C(F)(F)F [GSK-461364] | 37.954% | 173.445% | 46.1468% | 90.9348% | 36.0345% | 141.481% | 13.8424% | 71.1921% | 8.2073% | 127.3% | 6.274% | 91.647%
CN([C@@H]1CCc2c(CC(=O)O)c3ccccc3n2C1)S(=O)(=O)c1ccc(F)cc1 [MK-7246] | 76.0592% | 112.144% | 82.2127% | 107.31% | 94.6909% | 109.932% | 110.185% | 99.3239% | 127.259% | 149.477% | 87.9847% | 110.238%
CN1CCN(c2ccc(-c3cccc(CN4CCOCC4)c3)cc2NC(=O)c2c[nH]c(=O)cc2C(F)(F)F)CC1 | 81.9859% | 136.534% | 110.455% | 90.7791% | 82.2903% | 116.555% | 112.073% | 84.4992% | 91.1397% | 122.014% | 99.8143% | 114.421%
Cc1cc2c(cc1N1C(=O)c3cccc4c(CCCO)ccc(c34)C1=O)n(C)c(=O)n2C | 46.4165% | 127.225% | 64.4307% | 101.303% | 35.0091% | 231.762% | 20.745% | 97.4451% | 83.3962% | 164.269% | 66.8328% | 103.172%
Cc1nc(-c2cn3c(n2)-c2ccc(-c4cnn(C(C)(C)C(N)=O)c4)cc2OCC3)n(C(C)C)n1 [TASELISIB] | 25.1108% | 133.934% | 29.7364% | 65.8836% | 15.8608% | 146.008% | 9.086% | 84.7341% | 42.3556% | 62.2904% | 29.0303% | 59.8749%
O=C1NC(c2ccccn2)Sc2ccccc21 (stereo unspecified) [BTZO-4] | 61.6346% | 107.214% | 121.016% | 104.244% | 109.35% | 85.8309% | 124.511% | 93.402% | 120.289% | 168.274% | 120.842% | 96.0026%
Cc1ccc2nc(NCCN)c3ncc(C)n3c2c1.O=C(O)C(F)(F)F.O=C(O)C(F)(F)F | 82.3615% | 114.809% | 73.2048% | 109.465% | 230.973% | 67.6056% | 101.148% | 93.4293% | 94.0156% | 112.188% | 113.649% | 154.019%
CN1CCN(c2ccnc(NCCc3ccccc3)n2)CC1 [TP-040n] | 93.1561% | 99.6193% | 147.697% | 101.671% | 67.1911% | 97.5889% | 115.175% | 123.14% | 79.4477% | 81.2059% | 106.155% | 134.56%
Cc1ccc(C(=O)Nc2cccc(C(F)(F)F)c2)cc1Nc1nc(-c2cccnc2)nc2c1cnn2C | 103.322% | 86.6207% | 91.8457% | 71.8424% | 141.672% | 123.917% | 68.1835% | 97.2478% | 60.2736% | 70.9034% | 100.972% | 83.1262%
Cc1noc([C@H]2C[C@@H](c3ccc(C(F)(F)F)cc3)CN(C(=O)N3CCS(=O)(=O)C3)C2)n1 [BAY-448] | 96.3881% | 112.512% | 127.621% | 97.5385% | 115.252% | 84.5218% | 119.935% | 108.615% | 105.176% | 127.928% | 104.997% | 116.857%
CC(=O)NCC(=O)N1[C@@H]2CC[C@H]1c1ccc(Nc3ncc(C(F)(F)F)c(NC4CCC4)n3)cc12 [PF-03814735] | 21.4424% | 92.7993% | 23.2786% | 69.2613% | 4.585% | 155.761% | 7.993% | 63.4074% | 12.5382% | 132.747% | 7.137% | 42.3421%
C[C@@H]1CCN(C(=O)CC#N)C[C@@H]1N(C)c1ncnc2[nH]ccc12.O=C(O)CC(O)(CC(=O)O)C(=O)O [TOFACITINIB CITRATE] | 119.294% | 99.6774% | 102.323% | 98.8919% | 115.032% | 86.9545% | 89.5356% | 81.856% | 105.115% | 91.9737% | 115.164% | 114.62%
COc1ccccc1C(=O)Nc1cc2c(cc1N1CCCC1)n(C)c(=O)n2C | 94.3985% | 117.237% | 96.8906% | 95.8256% | 113.69% | 143.545% | 104.265% | 110.449% | – | – | – | –
CS(=O)(=O)N1CCN(Cc2cc3nc(-c4cccc5[nH]ncc45)nc(N4CCOCC4)c3s2)CC1 [PICTILISIB] | – | – | – | – | – | – | – | – | 43.124% | 60.0718% | 35.1251% | 58.2983%
